{
  "source": "PubChem BioAssay AID248",
  "about": "(DTP/NCI, 2004)",
  "system": "L1210 leukemia ip in BDF1 mice, survival T/C",
  "assay": "NCI In Vivo Anticancer Drug Screen. Data for tumor model L1210 Leukemia (intraperitoneal) in B6D2F1 (BDF1) mice",
  "details": "endpoint: mean survival time, higher = longer survival",
  "how_it_was_run": "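Each compound was tested against a transplantable tumor grown in mice. The endpoint was survival, with treated animals benchmarked against vehicle controls as a simple ratio.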",
  "key": {"[1]": {"details": "dose: 100.0 mg/kg/injection, schedule: Q01DX009 (ip), vehicle: saline with Tween-80"}, "[2]": {"details": "dose: 200.0 mg/kg/injection, schedule: Q01DX009 (ip), vehicle: saline with Tween-80"}, "[3]": {"details": "dose: 100.0 mg/kg/injection, schedule: Q04DX003 (ip), vehicle: saline with Tween-80"}, "[4]": {"details": "dose: 200.0 mg/kg/injection, schedule: Q04DX003 (ip), vehicle: saline with Tween-80"}, "[5]": {"details": "dose: 400.0 mg/kg/injection, schedule: Q04DX003 (ip), vehicle: saline with Tween-80"}},
  "note": "Toxic doses and inconclusive results are not listed. Peptide text beside a SMILES is read from it. * marks the point of attachment. Cbz = O=C(OCc1ccccc1)*",
  "data": [
    {"compound": "CCOC(=O)N(OC(C)=O)P(=O)(N1CC1)N1CC1", "values": [
      {"measurement": "T/C", "setting": "dose: 100.0 mg/kg/injection, schedule: Q04DX002 (ip), vehicle: saline", "value": "100 % of control"},
      {"measurement": "T/C", "setting": "dose: 200.0 mg/kg/injection, schedule: Q04DX002 (ip), vehicle: saline", "value": "100 % of control"},
      {"measurement": "T/C", "setting": "dose: 400.0 mg/kg/injection, schedule: Q04DX002 (ip), vehicle: saline", "value": "104 % of control"}
    ]},
    {"compound": "CC(=O)NC1CCC(/C=C(\\C#N)C2CCC(C)CC2)CC1", "note": "(centres undefined)", "values": [
      {"measurement": "T/C", "setting": "dose: 100.0 mg/kg/injection, schedule: Q04DX002 (ip), vehicle: saline with Tween-80", "value": "87 % of control"},
      {"measurement": "T/C", "setting": "dose: 200.0 mg/kg/injection, schedule: Q04DX002 (ip), vehicle: saline with Tween-80", "value": "93 % of control"}
    ]},
    {"compound": "CCN(CC)C(=O)CCc1ccccc1", "values": [
      {"measurement": "T/C", "setting": "[1]", "value": "108 % of control"},
      {"measurement": "T/C", "setting": "[2]", "value": "100 % of control"}
    ]},
    {"compound": "COC(=O)C(Cc1ccc(N(CCCl)CCCl)cc1)N=NNc1[nH]ncc1C(N)=O", "note": "(centres undefined)", "values": [
      {"measurement": "T/C", "setting": "dose: 19.0 mg/kg/injection, schedule: Q01DX001 (ip), vehicle: other", "value": "106 % of control"},
      {"measurement": "T/C", "setting": "dose: 38.0 mg/kg/injection, schedule: Q01DX001 (ip), vehicle: other", "value": "124 % of control"},
      {"measurement": "T/C", "setting": "dose: 75.0 mg/kg/injection, schedule: Q01DX001 (ip), vehicle: other", "value": "100 % of control"},
      {"measurement": "T/C", "setting": "dose: 150.0 mg/kg/injection, schedule: Q01DX001 (ip), vehicle: other", "value": "155 % of control"},
      {"measurement": "T/C", "setting": "dose: 300.0 mg/kg/injection, schedule: Q01DX001 (ip), vehicle: other", "value": "117 % of control"}
    ]},
    {"compound": "C(#CCOc1ccccc1)COc1ccccc1", "values": [
      {"measurement": "T/C", "setting": "[3]", "value": "97 % of control"},
      {"measurement": "T/C", "setting": "[4]", "value": "97 % of control"},
      {"measurement": "T/C", "setting": "[5]", "value": "97 % of control"}
    ]},
    {"compound": "CC(C)C(NC(=O)C1CCCN1C(=O)OCc1ccccc1)C(=O)O", "note": "(stereo not drawn) (Cbz-Pro-Val-OH; configuration not given here)", "values": [
      {"measurement": "T/C", "setting": "dose: 100.0 mg/kg/injection, schedule: Q01DX009 (ip), vehicle: saline sonified", "value": "102 % of control"},
      {"measurement": "T/C", "setting": "dose: 100.0 mg/kg/injection, schedule: Q04DX003 (ip), vehicle: saline sonified", "value": "97 % of control"},
      {"measurement": "T/C", "setting": "dose: 200.0 mg/kg/injection, schedule: Q01DX009 (ip), vehicle: saline sonified", "value": "92 % of control"},
      {"measurement": "T/C", "setting": "dose: 200.0 mg/kg/injection, schedule: Q04DX003 (ip), vehicle: saline sonified", "value": "96 % of control"},
      {"measurement": "T/C", "setting": "dose: 400.0 mg/kg/injection, schedule: Q01DX009 (ip), vehicle: saline sonified", "value": "97 % of control"},
      {"measurement": "T/C", "setting": "dose: 400.0 mg/kg/injection, schedule: Q04DX003 (ip), vehicle: saline sonified", "value": "97 % of control"}
    ]},
    {"compound": "O=[N+]([O-])c1ccc(NCCO)c([N+](=O)[O-])c1", "values": [
      {"measurement": "T/C", "setting": "[1]", "value": "98 % of control"},
      {"measurement": "T/C", "setting": "[3]", "value": "88 % of control"},
      {"measurement": "T/C", "setting": "[2]", "value": "106 % of control"},
      {"measurement": "T/C", "setting": "[4]", "value": "97 % of control"},
      {"measurement": "T/C", "setting": "[5]", "value": "88 % of control"}
    ]},
    {"compound": "CC(C)(COC(=O)COc1ccc(Cl)cc1Cl)[N+](=O)[O-]", "values": [
      {"measurement": "T/C", "setting": "dose: 100.0 mg/kg/injection, schedule: Q01DX009 (ip), vehicle: Klucel (hydroxypropylcellulose) (HPC)", "value": "97 % of control"},
      {"measurement": "T/C", "setting": "dose: 200.0 mg/kg/injection, schedule: Q01DX009 (ip), vehicle: Klucel (hydroxypropylcellulose) (HPC)", "value": "92 % of control"}
    ]},
    {"compound": "c1ccc(-c2nc3ccccn3n2)cc1", "values": [
      {"measurement": "T/C", "setting": "dose: 100.0 mg/kg/injection, schedule: Q01DX001 (ip), vehicle: Klucel (hydroxypropylcellulose) (HPC)", "value": "101 % of control"},
      {"measurement": "T/C", "setting": "dose: 200.0 mg/kg/injection, schedule: Q01DX001 (ip), vehicle: Klucel (hydroxypropylcellulose) (HPC)", "value": "95 % of control"},
      {"measurement": "T/C", "setting": "dose: 400.0 mg/kg/injection, schedule: Q01DX001 (ip), vehicle: Klucel (hydroxypropylcellulose) (HPC)", "value": "103 % of control"}
    ]},
    {"compound": "COc1cccc(/C=N/Nc2nnc(N/N=C/c3cccc(OC)c3)c3ccccc23)c1", "values": [
      {"measurement": "T/C", "setting": "dose: 50.0 mg/kg/injection, schedule: Q01DX001 (ip), vehicle: carboxymethylcellulose (CMC)", "value": "101 % of control"},
      {"measurement": "T/C", "setting": "dose: 100.0 mg/kg/injection, schedule: Q01DX001 (ip), vehicle: carboxymethylcellulose (CMC)", "value": "107 % of control"},
      {"measurement": "T/C", "setting": "dose: 200.0 mg/kg/injection, schedule: Q01DX001 (ip), vehicle: carboxymethylcellulose (CMC)", "value": "103 % of control"}
    ]},
    {"compound": "O=C=Nc1ccc(C(=O)c2ccccc2)cc1", "values": [
      {"measurement": "T/C", "setting": "dose: 20.0 mg/kg/injection, schedule: Q01DX009 (ip), vehicle: saline with Tween-80", "value": "93 % of control"},
      {"measurement": "T/C", "setting": "dose: 40.0 mg/kg/injection, schedule: Q01DX009 (ip), vehicle: saline with Tween-80", "value": "93 % of control"},
      {"measurement": "T/C", "setting": "dose: 80.0 mg/kg/injection, schedule: Q01DX009 (ip), vehicle: saline with Tween-80", "value": "90 % of control"},
      {"measurement": "T/C", "setting": "dose: 160.0 mg/kg/injection, schedule: Q01DX009 (ip), vehicle: saline with Tween-80", "value": "90 % of control"},
      {"measurement": "T/C", "setting": "dose: 320.0 mg/kg/injection, schedule: Q01DX009 (ip), vehicle: saline with Tween-80", "value": "93 % of control"}
    ]}
  ]
}
